Laboratory results: US9475805B2, “Tricyclic compound” (Kyowa Hakko Kirin Co., Ltd., priority 2008, dated 2016)

Target: T1, PPAR γ (Homo sapiens, UniProt P37231)
T1 construct: expressed in transfected cells; host or cells: HEK293EBNA
T1 sequence (P37231 174-475 isoform P37231-2): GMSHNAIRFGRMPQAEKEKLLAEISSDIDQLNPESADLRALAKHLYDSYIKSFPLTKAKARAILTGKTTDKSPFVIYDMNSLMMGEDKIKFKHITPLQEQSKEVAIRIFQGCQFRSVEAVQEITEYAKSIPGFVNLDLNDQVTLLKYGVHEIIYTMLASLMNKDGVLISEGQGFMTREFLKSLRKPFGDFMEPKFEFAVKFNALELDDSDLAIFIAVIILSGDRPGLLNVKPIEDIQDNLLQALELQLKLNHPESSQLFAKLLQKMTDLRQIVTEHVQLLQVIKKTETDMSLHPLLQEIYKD
Experiment: PPAR γ activation action based on transactivation assay of PPAR γ by transient gene transfer (GAL4-PPAR γ chimeric receptor, luciferase reporter, HEK293EBNA cells)
Format: cell-based
Details: concentration showing 50% of the compound's own efficacy (maximum activity rate relative to pioglitazone 10 μmol/L = 100%), 24 hr
Protocol: The agonist activity of compound (I) to PPAR γ was determined by a transactivation assay method using a chimeric nuclear receptor of a DNA binding region of a yeast transcription factor GAL4 and a PPAR γ ligand binding region. Specifically, the PPAR γ agonist activity of compound (I) was evaluated by the following method based on the method of Lehmann et al. (J Biol Chem., 1995, vol. 270, page 12953).
HEK293EBNA cells cultured in Dulbecco's Modified Eagle medium (Invitrogen) containing 10 v/v % fetal calf serum (Invitrogen) were used. 30 mL of the above-mentioned cells (density: 1×10^5 cells/mL) were inoculated in a […] (Iwaki Glass), and cultured overnight. Using SuperFect Transfection Reagent (QIAGEN), a plasmid expressing a GAL4-PPAR γ chimeric nuclear receptor fusing 174-475 amino acids, which are human PPAR γ ligand binding region, and 1-147 amino acids, which are GAL4 DNA binding region, and a reporter plasmid expressing a GAL4 responsive luciferase were transiently introduced into the cells at a proportion of 4:1. After 5 hr from transfection, the cells were detached from the culture dish, and the detached cells (density: 2×10^4 cells/mL) were inoculated by 100 μL in each well of a 96 well white plate (SUMITOMO BAKELITE), and cultured overnight. The medium was removed, compound (I) diluted in various concentrations with serum-free Dulbecco's Modified Eagle medium was added by 100 μL, and the mixture was reacted under a 5% carbon dioxide gas stream (5% CO2) at 37° C. for 24 hr. On the other hand, as a positive control, 10 μmol/L of pioglitazone (100 μL) was added, and the mixture was reacted under a 5% carbon dioxide gas stream (5% CO2) at 37° C. for 24 hr. As a substrate of luciferase, 100 μL of Steady-Glo (Promega) was added to each well and the mixture was thoroughly stirred. Immediately thereafter, the chemical luminescence due to luciferase was measured using TopCount NTX (Packard).
The agonist activity (activity rate (%)) of compound (I) to PPAR γ was calculated according to the following formula, as a relative activity when the agonist activity on addition of pioglitazone (10 μmol/L) was 100%.

EC50 [nM]	SMILES
12	CCCc1nc2ccccc2n1Cc1ccc2c(c1)COc1ccc(F)cc1/C2=C(\C)c1noc(=O)[nH]1 [Compound 116, (E)-2-Fluoro-8-(2-propylbenzimidazol-1-yl)methyl-11-[1-(5-oxo-4,5-dihydro-1,2,4-oxadiazol-3-yl)ethylidene]-6,11-dihydrodibenzo[b,e]oxepine]
314	C/C(=C1\c2ccccc2OCc2nc(Cn3c(C4CC4)nc4c(Cl)ccnc43)ccc21)c1noc(=O)[nH]1 [Compound 119, (E)-2-(7-Chloro-2-cyclopropyl-3H-imidazo[4,5-b]pyridin-3-yl)methyl-5-[1-(5-oxo-4,5-dihydro-1,2,4-oxadiazol-3-yl)ethylidene]-5,11-dihydrobenzooxepino[3,4-b]pyridine]
